Patent publication US8729047B2, “Compositions for inhibiting redox-sensitive GTPases” (Board of Regents, The University of Texas System, priority 2010, dated 2014)
Read-outs that look alike come from different tables or passages of the source.

Columns and labels:
RhoA = target: T1, RhoA (Homo sapiens, UniProt P61586); conditions: determined previously; read-out: trueKD GDP; cited from earlier work
T1 construct: made in house; host or cells: E. coli

Rac1 [1] = target: T2, Rac1 (Homo sapiens, UniProt P63000); design: made in house; host or cells: E. coli; conditions: determined previously; read-out: trueKD GDP; cited from earlier work
Rac1 [2] = target: T2, Rac1; design: made in house; host or cells: E. coli; conditions: known value (Morgan et al.); read-out: trueKD for GDP; cited from earlier work
RhoC = RhoC (Homo sapiens, UniProt P08134); assay: Co-IP mass spectrometry of thioguanine nucleotide disulfide adduct; type: cell-based; design: endogenous in cells; host or cells: SUM149, SUM102, SW480, HCCLM3 (endogenous); HME-RhoC (transfected with wild type RhoC)
Sequence of RhoC (P08134 whole entry): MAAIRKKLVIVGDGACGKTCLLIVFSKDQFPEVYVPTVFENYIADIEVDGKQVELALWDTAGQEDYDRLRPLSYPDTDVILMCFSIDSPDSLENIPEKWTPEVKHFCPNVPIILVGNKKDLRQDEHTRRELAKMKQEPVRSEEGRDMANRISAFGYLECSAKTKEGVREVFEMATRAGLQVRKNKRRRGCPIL
Experimental: FIG. 6. Detection of unusual 6-TGNP adduct from HME-RhoC cells. […] A monoclonal RhoC antibody (Biocompare, South San Francisco, Calif.) and a “Mammalian Co-Immunoprecipitation Kit” (Pierce) were used for the analyses of the RhoC 6-TGNP interaction in HME-RhoC cells. The immunoprecipitated RhoC sample was suspended in 50% methanol:0.1% formic acid. The protein portion and RhoC-released nucleotide were separated by a brief centrifugation (3000×g for 5 min). The protein portion from the immunoprecipitated RhoC was resuspended in the assay buffer (pH 7.5), digested with trypsin for 10 h, and analyzed with MALDI-TOF tandem mass spectrometry. The MALDI-TOF peak at 1476.6 Da represents peptide-6-TGDP adduct; TC^20LLIVFSK-6-TGDP (SEQ ID NO:4).
FIG. 15. Detection of unusual 6-TGNP adduct from SUM and HME-RhoC cells. The ESI-MS and MS/MS methods to detect and identify a chemically modified RhoC residue are described elsewhere herein. […] The left and right columns, respectively, denote any of the RhoC samples taken from SUM and HME cells. As indicated, a mixture of samples taken from untreated SUM149 and SUM102 cells was used as a control for the experiment shown in the left column. For the right column, a mixture of samples taken from HME-RhoC and […] cells was used as a control. (B) A MS/MS analysis was performed with the ESI-MS sample of 6-TG-treated SUM149 cells to identify a biomolecule that have a mass of 1481.6 Da. […]
Cell lysates in an extraction buffer were incubated with a monoclonal anti-RhoC antibody precoupled to glutathione-agarose beads. […] The protein portion from the immunoprecipitated RhoC was resuspended in a buffer containing 1 mM EDTA and 0.1 mM DTPA in 50 mM TrisHCl (pH 7.4), then digested with trypsin for 10 h, and analyzed with electrospray mass spectrometry (ESI-MS) and tandem mass spectrometry (MS/MS) in the positive ion mode ([molecular mass+H]^+).

HCCLM3 cells = assay: QCM Cell Invasion Assay, time-dependent motility; type: cell-based, human; conditions: 6-TG in combination with a NO donor for 3 days; FIG. 14B
Experimental: (§1) FIG. 14. Determination of cell invasiveness in the presence and absence of thiopurines and/or redox agents.
(§2) The Colorimetric-based QCM Cell Invasion Assay kit (Millipore, Billerica, Mass.) was used for the time-dependent cell migration assay of SUM149, SW480, and HCCLM3 cells. Serum-free sample cells (2×10^5 cells/mL) were prepared as indicated in the section of the matrigel invasion assay. The serum-free sample cells (0.25 mL) were loaded to the rehydrated upper chamber. […] Serum-free or serum-containing media (0.5 mL) was added to the lower chamber. The plate covered was then incubated for one to four days at 37° C. in a 10% CO2 incubator. […] The fraction of cells migrated from the upper chamber to the lower chamber was then measured colorimetrically according to the procedure provided by the manufacture.

SW480 cells = assay: QCM Cell Invasion Assay, time-dependent motility; type: cell-based, human; conditions: 6-TG in combination with a NO donor for 3 days; FIG. 14B
Experimental: as §1, §2

T1 sequence (P61586 whole entry, species assumed): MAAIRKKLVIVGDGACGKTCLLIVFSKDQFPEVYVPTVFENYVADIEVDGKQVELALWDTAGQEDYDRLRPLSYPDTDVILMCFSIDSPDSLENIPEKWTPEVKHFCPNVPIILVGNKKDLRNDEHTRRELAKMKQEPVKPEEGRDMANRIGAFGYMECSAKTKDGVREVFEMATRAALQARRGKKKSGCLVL

peak assigned to RhoC-6-TGDP adduct (RhoC; 6-TG in the presence of a NO donor)	RhoC-derived peptide-6-TGDP disulfide adduct mass peak by ESI-MS (RhoC; co-IPed RhoC from SUM149 and HME-RhoC cells treated with 6-TG, FIG. 15A)	Compound	Kd (RhoA) [nM]	Kd (Rac1 [1]) [nM]	Kd (Rac1 [2]) [nM]	peptide-6-TGDP adduct (TC20LLIVFSK-6-TGDP) by MALDI-TOF (RhoC; HME-RhoC cells, 6-TG 1 μM every 48 h, 5 days, FIG. 6)	most of the invasive motility (HCCLM3 cells)	most of the invasive motility (SW480 cells)
–	–	Nc1nc2c(ncn2[C@@H]2O[C@H](COP(=O)(O)OP(=O)(O)O)[C@@H](O)[C@H]2O)c(=O)[nH]1 [GDP]	13000	1800	1800	–	–	–
increased	commonly exhibited	Nc1nc2nc[nH]c2c(=S)[nH]1 [6-TG, 6-thioguanine]	–	–	–	detected	terminated	terminated
